Test results reported in patent publication US7879864B2, “Substituted 8-aminoalkoxy-xanthine compounds and compositions useful in the treatment of hyperlipidemia and diabetes” (Sanofi-Aventis Deutschland GmbH, priority 2004, dated 2011).
Counter-ions that a name gives are not always drawn.

Test system: not given
Test: not given
Settings: not given

melting point	SMILES
151.7 °C	CC(C)=CCn1c(O[C@@H]2CCCC[C@H]2CN)nc2c1c(=O)n(CC(=O)c1ccccc1)c(=O)n2C (single isomer, unassigned; diastereomer 1) [Example 38, trans-8-(2-Aminomethylcyclohexyloxy)-3-methyl-7-(3-methylbut-2-enyl)-1-(2-oxo-2-phenylethyl)-3,7-dihydropurine-2,6-dione (diastereomer 1)]

Target: T1, DPP-IV from porcine kidney (Sus scrofa, UniProt P22411)
T1 construct: DPP-IV from porcine kidney (Sigma, Munich); purchased Sigma, Munich; host or cells: porcine kidney
T1 sequence (P22411 whole entry): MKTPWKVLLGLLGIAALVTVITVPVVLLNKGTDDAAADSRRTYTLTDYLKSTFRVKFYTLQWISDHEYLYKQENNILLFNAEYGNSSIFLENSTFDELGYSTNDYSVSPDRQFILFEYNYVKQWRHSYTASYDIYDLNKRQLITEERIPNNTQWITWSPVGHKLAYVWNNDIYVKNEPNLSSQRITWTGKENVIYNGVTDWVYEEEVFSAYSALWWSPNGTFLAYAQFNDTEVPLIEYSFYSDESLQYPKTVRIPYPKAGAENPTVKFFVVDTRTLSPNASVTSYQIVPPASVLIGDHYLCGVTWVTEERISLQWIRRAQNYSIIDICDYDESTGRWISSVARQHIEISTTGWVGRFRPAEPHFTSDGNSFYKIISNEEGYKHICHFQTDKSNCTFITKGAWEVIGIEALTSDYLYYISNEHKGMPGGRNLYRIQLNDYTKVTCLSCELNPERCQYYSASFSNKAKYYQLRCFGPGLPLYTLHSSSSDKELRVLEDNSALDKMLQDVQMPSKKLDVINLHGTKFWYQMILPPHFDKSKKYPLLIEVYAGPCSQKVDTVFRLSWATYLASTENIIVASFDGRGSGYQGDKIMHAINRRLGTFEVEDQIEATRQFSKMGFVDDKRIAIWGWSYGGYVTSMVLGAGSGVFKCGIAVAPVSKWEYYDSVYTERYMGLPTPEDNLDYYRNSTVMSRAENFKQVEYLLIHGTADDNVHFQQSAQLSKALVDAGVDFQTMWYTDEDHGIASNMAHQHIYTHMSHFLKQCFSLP
Test: Measurement of the DPP-IV activity (fluorimetric H-Ala-Pro-AFC conversion)
Format: biochemical
Settings: DPP-IV 1 mU/ml, H-Ala-Pro-AFC 15 μM, Tris/HCl 40 mM pH 7.4, room temperature, typically 10 min
Method: The activity of the compounds was assayed as follows: • Measurement of the DPP-IV activity:
The reaction was carried out at room temperature for various times (typically 10 min) and stopped at the end of the reaction by adding 20 μl of ZnCl2 (1 M). […] When inhibitors were added, the added buffer volume was adapted so that a total volume of 200 μl was maintained for the assay mixture.

IC50	SMILES
4.5 nM	CC(C)=CCn1c(OC2CCCCC2CN)nc2c1c(=O)n(CC(=O)c1ccccc1)c(=O)n2C (mixture of isomers) [Example 37, trans-8-(2-Aminomethylcyclohexyloxy)-3-methyl-7-(3-methylbut-2-enyl)-1-(2-oxo-2-phenylethyl)-3,7-dihydropurine-2,6-dione hydrochloride (mixture of diastereomers)]
13 nM	CC(C)=CCn1c(O[C@@H]2CCCC[C@@H]2CN)nc2c1c(=O)n(CC(=O)c1ccccc1)c(=O)n2C (relative stereo) [Example 28, cis-8-(2-Aminomethylcyclohexyloxy)-3-methyl-7-(3-methylbut-2-enyl)-1-(2-oxo-2-phenylethyl)-3,7-dihydropurine-2,6-dione]
20 nM	CC(C)=CCn1c(OCCN)nc2c1c(=O)n(CC(=O)c1ccccc1)c(=O)n2C [Example 2, 8-(2-Aminoethoxy)-3-methyl-7-(3-methylbut-2-enyl)-1-(2-oxo-2-phenylethyl)-3,7-dihydropurine-2,6-dione]
460 nM	CC(C)=CCn1c(OCC(N)Cc2ccc(Cl)cc2)nc2c1c(=O)n(CC(=O)c1ccccc1)c(=O)n2C (stereo not shown) [Example 3, 8-[2-Amino-3-(4-chlorophenyl)propoxyl]-3-methyl-7-(3-methylbut-2-enyl)-1-(2-oxo-2-phenylethyl)-3,7-dihydropurine-2,6-dione]
28 nM	CC(C)=CCn1c(OC[C@H](C)N)nc2c1c(=O)n(CC(=O)c1ccccc1)c(=O)n2C [Example 4, (S)-8-(2-Aminopropoxy)-3-methyl-7-(3-methylbut-2-enyl)-1-(2-oxo-2-phenylethyl)-3,7-dihydropurine-2,6-dione]
51 nM	CC(C)=CCn1c(OCC2CCCCN2)nc2c1c(=O)n(CC(=O)c1ccccc1)c(=O)n2C (stereo not shown) [Example 7, 3-Methyl-7-(3-methylbut-2-enyl)-1-(2-oxo-2-phenylethyl)-8-(piperidin-2-ylmethoxy)-3,7-dihydropurine-2,6-dione]
120 nM	CC(C)=CCn1c(OC[C@H]2CCNC2)nc2c1c(=O)n(CC(=O)c1ccccc1)c(=O)n2C [Example 9, (S)-3-Methyl-7-(3-methylbut-2-enyl)-1-(2-oxo-2-phenylethyl)-8-(pyrrolidin-3-ylmethoxy)-3,7-dihydropurine-2,6-dione hydrochloride]
34 nM	CC(C)=CCn1c(OC[C@@H]2CCNC2)nc2c1c(=O)n(CC(=O)c1ccccc1)c(=O)n2C [Example 10, (R)-3-Methyl-7-(3-methylbut-2-enyl)-1-(2-oxo-2-phenylethyl)-8-(pyrrolidin-3-ylmethoxy)-3,7-dihydropurine-2,6-dione hydrochloride]
100 nM	CC(C)=CCn1c(OC[C@@H](C)N)nc2c1c(=O)n(CC(=O)c1ccccc1)c(=O)n2C [Example 11, (R)-8-(2-Aminopropoxy)-3-methyl-7-(3-methylbut-2-enyl)-1-(2-oxo-2-phenylethyl)-3,7-dihydropurine-2,6-dione]
